Experimental data taken from PMC5045412, “Inhibition of pro-HGF activation by SRI31215, a novel approach to block oncogenic HGF/MET signaling” (Oncotarget, 2016).

Columns and labels:
Assay type in all cases: cell-based
DU145 cells [1] = experiment: Cell scattering assay; settings: 24 hours, SRI 31215 10 μM; for fibroblast-induced cell scattering: 18Co conditioned media, JNJ 38877605 1 μM
Description: DU145 cells were cultured in 6-well tissue culture plates at a density of 1×10^3 cells per well. After colonies formed (6-8 days), cells were serum-starved overnight and were then treated with recombinant HGF (10 ng/ml) or with conditioned media from 18Co fibroblasts in the presence or absence of SRI 31215 (10 μM) or the MET kinase inhibitor JNJ 38877605 (1 μM) for 24 hours. Cells were washed with PBS and colonies were fixed and stained with 0.5% crystal violet solution in 6% glutaraldehyde.

RKO cells = experiment: Clonogenic growth and viability of HGF-producing RKO cells with EGFR inhibitors; settings: SRI 31215 10 μM, JNJ 38877605 1 μM; for sensitization to gefitinib: HGF-producing RKO cells; for clonogenic growth, agent alone / clonogenic growth, combination with cetuximab: RKO cells, HAI-1 20 nM; for clonogenic growth, combination with cetuximab: cetuximab 50 μg/ml
Description: Figure 5 Inhibitors of HGF/MET signaling prevent the innate and acquired resistance to cetuximab A. and B. RKO cells were treated with cetuximab (50 μg/ml) (A) of gefitinib (B) alone, or in combination with SRI 31215 (10 μM), JNJ 38877605 (1 μM) or recombinant HAI-1 (20 nM) as indicated and clonogenic growth was monitored as described in Materials and Methods. C. and D. Caco2 cells were treated with cetuximab or gefitinib alone or in the presence of CM from fibroblasts and SRI 31215 (10 μM) or JNJ 38877605 (1 μM) as indicated. #: p<0.05, compared to control (CTRL); NS: not significant.
(§1) Cell titer-glo luminescent cell viability assay kit was purchased from Promega. […] For clonogenic assay, cells were seeded in 6-well plates at a density of 400 cells per well, serum starved overnight, and treated as indicated. After colony formation (8-12 days), cells were stained with crystal violet and the number of colonies was determined using ImageQuantTL (GE Health Care Life Sciences).
Supplementary Figure S3: Inhibition of HGF/MET signaling sensitizes HGF-producing RKO colon cancer cells to gefitinib. A. RKO cells (HGF+) and B. HT29 (HGF-) cells were treated with gefitinib (5 μM) in the absence or the presence of SRI 31215 (10 μM) or JNJ 38877605 (1 μM) as indicated and viability was determined 24 and 72 hours after treatment. # indicates statistical significance compared to samples treated with gefitinib alone as determined by Students’ t-test (p<0.05).
(also on this page, place not known: www.impactjournals.com/oncotarget/ Oncotarget, Materials 2016 Supplementary (HGF +) (HGF -)) […]

DU145 cells [2] = experiment: Scratch assay and transwell migration assay; settings: SRI 31215 10 μM, JNJ 38877605 1 μM; for fibroblast-induced migration: 18Co or WI38 conditioned media
Description: Cancer cells were seeded in 12-well plates and allowed to reach confluence. Following overnight serum-starvation, a scratch/wound was introduced into the cell monolayer with a sterile tip. Cells were cultured in serum-free media or were treated with recombinant HGF (10 ng/ml) or serum-free conditioned media from fibroblasts (50%) in the presence or absence of SRI 31215 or JNJ 38877605. Images of migrating cells were captured at 0, 12 and 24 hours after the treatment.
Cytoselect cell migration assay kit was purchased from Cell Biolabs, Inc and the assay was performed according to the manufacturer's instructions. Briefly, DU145 cells (75×10^3) were seeded in transwells ([…] inserts) in serum-free media and were stimulated with recombinant HGF or with conditioned media from 18Co or WI38 fibroblasts (in the absence or the presence of SRI 31215 or JNJ 38877605). Cells were incubated for 12 hours and non-migratory cells were gently removed from inside of the inserts. Inserts were stained for 10 minutes at room temperature, transferred to wells containing 200 μl of extraction buffer and incubated for 10 minutes on a shaker. The optical density (OD) was measured at 560 nm.

DiFi cells [3] = experiment: Viability of DiFi cells with EGFR inhibitors and fibroblast conditioned medium; settings: gefitinib 0.5 μM or cetuximab 0.5 μg/ml, 72 hours
Description: Figure 6 Fibroblasts inhibit the proapoptotic activity of EGFRi in an HGF-dependent manner A. and B. DiFi cells were treated with gefitinib (0.5 μM) or cetuximab (0.5 μg/ml) in the absence or the presence of conditioned medium from fibroblasts and SRI 31215 and JNJ 38877605 as indicated. The viability was determined after 72 hours. In B, fibroblast conditioned medium was incubated with anti HGF or anti-IL1β antibodies. C. and D. DiFi cells were treated with gefitinib (C) or cetuximab (D) in the presence of conditioned medium from fibroblasts and inhibitors of HGF/MET signaling as indicated for 18h. Caspase activity was assessed by the Caspase-Glo 3/7 Assay from Promega.
as §1

DU145 cells [4] = experiment: EMT markers E-cadherin and vimentin (immunofluorescence, immunoblotting); settings: 24 hours, SRI 31215 10 μM, JNJ 38877605 1 μM; for fibroblast-induced expression of vimentin / fibroblast-induced inhibition of E-cadherin: 18Co conditioned media
Description: Figure 3 SRI 31215 inhibits fibroblast-induced EMT in DU145 cells Cells were stimulated with HGF or 18Co conditioned media for 24 hours in the absence or presence of SRI 31215 (10 μM) or JNJ 38877605 (1 μM) as indicated. The expression of E-cadherin was monitored by immunofluorescence A. The levels of E-cadherin and vimentin were also determined by immunoblotting B.
Immunoblotting was performed using standard procedures. Membranes were blocked with 5% non-fat milk for 1 hour at RT, and incubated with primary antibodies overnight at 4°C. Primary antibodies used were anti-HGF (R&D Systems), anti-MET, anti-p-MET, anti-p-GAB1, anti-p-AKT, anti-p-ERK1/2, anti-vimentin (Cell Signaling Technology), anti-p-STAT3 (Upstate Cell Signaling Solutions), anti-E-cadherin (BD Transduction Laboratories), anti-β-actin (Sigma). Following washing with TBS-T buffer, membranes were incubated with horseradish peroxidase-conjugated secondary antibodies for 1 hour and then washed with TBS-T. Immunoblots were developed using the chemiluminescent detection system with ECL (Amersham). Protein loading was normalized by probing blots for the expression of β-actin.
Cells were seeded at 1×10^3 cells per well in chamber slides. Following overnight serum-starvation, cells were treated with recombinant HGF (10 ng/ml) or conditioned media prepared from fibroblasts (50%) in the presence or absence of SRI 31215 (10 μM) or JNJ 38877605 (1 μM) for 24 hours. Cells were washed with PBS, fixed in ice-cold methanol/acetic acid solution [95:5 (v/v)] for 20 minutes at-20°C and incubated with anti-E-cadherin antibodies overnight at 4°C. Slides were washed with PBS, incubated with Alexa Fluor 568 conjugated secondary antibody for 1 hour at 37°C and examined with a fluorescent microscope.

DiFi cells [5] = experiment: Proliferation of DiFi cells induced by HGF or fibroblast conditioned medium; settings: 48 hours; for fibroblast-induced proliferation: fibroblast conditioned medium
Description: Cell lysates from EBC cells were used as control for pMET. B. DiFi cells were cultured in the presence of
HGF or fibroblast conditioned medium in the absence or the presence of JNJ38877605 or SRI 31215 for 48 hours. Neutralization of HGF
in fibroblast conditioned medium by anti-HGF antibodies inhibits growth promoting activity of fibroblasts (data not shown). […]

Structure (SMILES)	fibroblast-induced cell scattering (DU145 cells [1])	scattering induced by active HGF (DU145 cells [1])	sensitization to gefitinib (RKO cells)	clonogenic growth, agent alone (RKO cells)	clonogenic growth, combination with cetuximab (RKO cells)	fibroblast-induced migration (DU145 cells [2])	HGF-induced migration (DU145 cells [2])	fibroblast-mediated resistance to gefitinib and cetuximab (viability) (DiFi cells [3])	fibroblast-induced expression of vimentin (DU145 cells [4])	fibroblast-induced inhibition of E-cadherin (DU145 cells [4])	proliferation induced by recombinant, active HGF (DiFi cells [5])	fibroblast-induced proliferation (DiFi cells [5])	expression of E-cadherin in HGF-treated cells (DU145 cells [4])
CC1CN(CC2CCN(Cc3ccccc3)CC2)C(=O)N(c2cccc(C(=N)N)c2)C1 (stereo not drawn) [SRI 31215, 3-(3-((1-benzylpiperidin-4-yl)methyl)-5-methyl-2-oxotetrahydropyrimidin-1(2H)-yl)benzimidamide]	prevented	did not interfere	sensitized	did not impact	significant decrease	inhibited	did not interfere	prevent	prevented	prevented	did not influence	as efficient as JNJ 38877605 in preventing	–
Cn1cc(-c2ccc3nnc(C(F)(F)c4ccc5ncccc5c4)n3n2)cn1 [JNJ 38877605, reference compound]	prevented	–	sensitized	did not impact	significant decrease	completely prevented	completely prevented	prevent	prevented	prevented	prevented	prevented	restored
